Source: ChEMBL document CHEMBL4507261, “Data for DCP probe A-192621” (2021)

How the values were obtained:
[1] = target: Sodium/potassium-transporting ATPase (Sus scrofa) (UniProt P05027+P05024+D2WKD8+D2WKD7+F1ST41); test: ATPase (Na+/K+) Eurofins-Cerep enzyme and uptake assay; assay type: protein-complex assay; details: Compound concentration 10.0 uM
[2] = target: Adenosine receptor A2a (Homo sapiens) (UniProt P29274); test: A2A (h) Eurofins-Cerep binding assay; design: ligand concentration 6 nM; details: filed as agonist, Compound concentration 10.0 uM
[3] = target: T1, Alpha-1B adrenergic receptor (Homo sapiens) (UniProt P35368); test: Alpha1B (h) Eurofins-Cerep binding assay; details: filed as antagonist, Compound concentration 10.0 uM
T1 sequence (whole entry): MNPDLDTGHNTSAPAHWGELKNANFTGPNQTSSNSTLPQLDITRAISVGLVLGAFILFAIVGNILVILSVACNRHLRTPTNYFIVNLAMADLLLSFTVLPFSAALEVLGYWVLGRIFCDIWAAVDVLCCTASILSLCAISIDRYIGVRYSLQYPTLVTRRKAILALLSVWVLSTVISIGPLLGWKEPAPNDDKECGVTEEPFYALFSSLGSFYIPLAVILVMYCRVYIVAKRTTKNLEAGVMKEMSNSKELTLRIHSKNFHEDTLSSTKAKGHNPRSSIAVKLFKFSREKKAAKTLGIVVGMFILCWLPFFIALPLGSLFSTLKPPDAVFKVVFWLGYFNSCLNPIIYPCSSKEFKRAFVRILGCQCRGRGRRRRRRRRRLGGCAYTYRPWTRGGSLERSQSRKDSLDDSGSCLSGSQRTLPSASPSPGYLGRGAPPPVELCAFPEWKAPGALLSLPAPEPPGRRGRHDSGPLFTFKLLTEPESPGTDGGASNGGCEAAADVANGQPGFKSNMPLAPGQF

[4] = target: Endothelin receptor type B (Homo sapiens) (UniProt P24530); test: ETB (h) Eurofins-Cerep binding assay; details: filed as agonist, Compound concentration 10.0 uM
Endothelin receptor type B (Homo sapiens), sequence (P24530 whole entry): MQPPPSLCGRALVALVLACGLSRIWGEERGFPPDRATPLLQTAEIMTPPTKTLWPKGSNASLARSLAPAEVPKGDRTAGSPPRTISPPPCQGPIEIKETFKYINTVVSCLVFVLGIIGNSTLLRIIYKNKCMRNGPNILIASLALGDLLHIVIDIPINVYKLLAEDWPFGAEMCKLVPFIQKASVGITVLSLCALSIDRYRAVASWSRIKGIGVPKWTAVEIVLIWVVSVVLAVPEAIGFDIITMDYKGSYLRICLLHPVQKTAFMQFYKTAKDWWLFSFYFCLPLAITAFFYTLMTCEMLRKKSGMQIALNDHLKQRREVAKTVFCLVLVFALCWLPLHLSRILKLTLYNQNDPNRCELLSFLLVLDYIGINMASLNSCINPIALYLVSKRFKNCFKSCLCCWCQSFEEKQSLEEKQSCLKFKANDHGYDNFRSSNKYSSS

[5] = target: Mu-type opioid receptor (Homo sapiens) (UniProt P35372); test: mu (MOP) (h) Eurofins-Cerep binding assay; details: filed as agonist, Compound concentration 10.0 uM
[6] = target: Peroxisome proliferator-activated receptor gamma (Homo sapiens) (UniProt P37231); test: PPARgamma (h) Eurofins-Cerep binding assay; design: ligand concentration 5 nM; details: filed as agonist, Compound concentration 10.0 uM
Peroxisome proliferator-activated receptor gamma (Homo sapiens), sequence (P37231 whole entry): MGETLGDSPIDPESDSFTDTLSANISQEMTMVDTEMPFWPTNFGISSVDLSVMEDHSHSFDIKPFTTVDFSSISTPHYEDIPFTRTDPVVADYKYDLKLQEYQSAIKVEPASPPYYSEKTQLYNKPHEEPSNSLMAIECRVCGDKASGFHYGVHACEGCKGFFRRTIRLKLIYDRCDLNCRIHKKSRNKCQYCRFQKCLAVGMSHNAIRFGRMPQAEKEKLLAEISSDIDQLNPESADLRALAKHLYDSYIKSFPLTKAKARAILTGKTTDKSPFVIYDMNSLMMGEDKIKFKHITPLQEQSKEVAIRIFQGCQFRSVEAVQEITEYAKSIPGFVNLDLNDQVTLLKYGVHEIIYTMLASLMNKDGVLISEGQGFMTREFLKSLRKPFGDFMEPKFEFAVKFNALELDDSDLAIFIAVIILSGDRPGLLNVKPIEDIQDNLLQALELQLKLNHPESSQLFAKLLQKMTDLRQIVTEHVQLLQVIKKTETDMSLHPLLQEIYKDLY

[7] = target: Glutamate NMDA receptor (Rattus norvegicus) (UniProt P35439+Q00959+Q00960+Q00961+Q62645+Q8VHN2+Q9R1M7); test: PCP Eurofins-Cerep binding assay; assay type: protein-complex assay; design: ligand concentration 10 nM; details: filed as antagonist, Compound concentration 10.0 uM
[8] = target: Urotensin-2 receptor (Homo sapiens) (UniProt Q9UKP6); test: UT (h) Eurofins-Cerep binding assay; design: ligand concentration 0.1 nM; details: filed as agonist, Compound concentration 10.0 uM
[9] = target: voltage-gated L-type Ca2+ channel (diltiazem site, benzothiazepines) (Rattus norvegicus, UniProt P22002+P27732+Q02485); test: Ca2+ channel (L, diltiazem site) (benzothiazepines) Eurofins-Cerep binding assay; design: incubation time 120 min, incubation temperature RT, ligand concentration 15 nM; details: rat cerebral cortex (source of protein), probe [3H]diltiazem (15 nM), compound concentration 10 uM, read-out: % Inhibition of Control Specific Binding (Mean n=2)
[10] = test system: Tyrosine-protein kinase ABL1 (Homo sapiens), P00519 [H396P]; details: Compound concentration 1000.0 nM
[11] = target: Activin receptor type-1 (Homo sapiens) (UniProt Q04771); details: Compound concentration 1000.0 nM
Activin receptor type-1 (Homo sapiens), sequence (Q04771 whole entry): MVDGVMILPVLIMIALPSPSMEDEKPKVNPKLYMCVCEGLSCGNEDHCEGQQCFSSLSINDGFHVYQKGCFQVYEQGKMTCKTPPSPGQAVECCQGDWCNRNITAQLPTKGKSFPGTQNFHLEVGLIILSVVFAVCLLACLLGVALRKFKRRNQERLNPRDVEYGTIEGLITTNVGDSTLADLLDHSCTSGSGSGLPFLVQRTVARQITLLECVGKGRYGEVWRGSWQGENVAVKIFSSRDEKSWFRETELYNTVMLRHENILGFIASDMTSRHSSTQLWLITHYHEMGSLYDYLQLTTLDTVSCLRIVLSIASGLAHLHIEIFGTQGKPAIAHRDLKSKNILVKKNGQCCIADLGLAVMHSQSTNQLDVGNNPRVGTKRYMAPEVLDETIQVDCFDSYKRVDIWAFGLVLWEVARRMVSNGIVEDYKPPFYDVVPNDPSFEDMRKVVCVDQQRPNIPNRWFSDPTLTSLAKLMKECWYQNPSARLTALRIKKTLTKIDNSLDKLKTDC

[12] = target: Bone morphogenetic protein receptor type-1B (Homo sapiens) (UniProt O00238); details: Compound concentration 1000.0 nM
[13] = target: Cyclin-dependent kinase 11A (Homo sapiens) (UniProt Q9UQ88); details: Compound concentration 1000.0 nM
[14] = target: Cyclin-dependent kinase 4 (Homo sapiens) (UniProt P11802); details: Compound concentration 1000.0 nM
Cyclin-dependent kinase 4 (Homo sapiens), sequence (P11802 whole entry): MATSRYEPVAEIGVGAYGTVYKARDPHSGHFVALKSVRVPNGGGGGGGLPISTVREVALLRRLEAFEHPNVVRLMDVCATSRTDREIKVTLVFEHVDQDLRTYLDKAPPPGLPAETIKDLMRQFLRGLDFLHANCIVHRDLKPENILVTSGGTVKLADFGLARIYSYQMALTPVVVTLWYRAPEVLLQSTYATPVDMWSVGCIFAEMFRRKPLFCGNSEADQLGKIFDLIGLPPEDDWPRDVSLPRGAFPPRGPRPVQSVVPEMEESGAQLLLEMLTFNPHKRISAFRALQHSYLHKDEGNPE

[15] = target: Serine/threonine-protein kinase Chk2 (Homo sapiens) (UniProt O96017); details: Compound concentration 1000.0 nM
[16] = target: Dual specificity tyrosine-phosphorylation-regulated kinase 1A (Homo sapiens) (UniProt Q13627); details: Compound concentration 1000.0 nM
[17] = test system: Epidermal growth factor receptor (Homo sapiens), P00533 [G719C]; details: Compound concentration 1000.0 nM
[18] = target: Ephrin type-B receptor 1 (Homo sapiens) (UniProt P54762); details: Compound concentration 1000.0 nM
[19] = target: Tyrosine-protein kinase Fgr (Homo sapiens) (UniProt P09769); details: Compound concentration 1000.0 nM
Tyrosine-protein kinase Fgr (Homo sapiens), sequence (P09769 2-529 limits assumed): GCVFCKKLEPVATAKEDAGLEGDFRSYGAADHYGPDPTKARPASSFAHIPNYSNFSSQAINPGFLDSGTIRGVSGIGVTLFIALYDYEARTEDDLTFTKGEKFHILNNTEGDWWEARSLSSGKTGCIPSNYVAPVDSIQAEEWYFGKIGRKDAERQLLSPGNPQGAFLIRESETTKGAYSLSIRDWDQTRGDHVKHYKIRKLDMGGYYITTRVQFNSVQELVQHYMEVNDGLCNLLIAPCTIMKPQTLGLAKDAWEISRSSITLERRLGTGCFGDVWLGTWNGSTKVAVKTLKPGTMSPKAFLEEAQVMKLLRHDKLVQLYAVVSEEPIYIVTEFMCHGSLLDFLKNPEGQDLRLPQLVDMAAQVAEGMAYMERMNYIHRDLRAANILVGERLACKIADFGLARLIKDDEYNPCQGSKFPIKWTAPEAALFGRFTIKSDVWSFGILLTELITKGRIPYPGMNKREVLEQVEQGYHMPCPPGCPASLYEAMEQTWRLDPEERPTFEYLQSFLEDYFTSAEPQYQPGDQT

[20] = target: Receptor-type tyrosine-protein kinase FLT3 (Homo sapiens) (UniProt P36888); details: Compound concentration 1000.0 nM
[21] = target: Vascular endothelial growth factor receptor 3 (Homo sapiens) (UniProt P35916); details: Compound concentration 1000.0 nM
[22] = target: Tyrosine-protein kinase Fyn (Homo sapiens) (UniProt P06241); details: Compound concentration 1000.0 nM
Tyrosine-protein kinase Fyn (Homo sapiens), sequence (P06241 2-537 limits assumed): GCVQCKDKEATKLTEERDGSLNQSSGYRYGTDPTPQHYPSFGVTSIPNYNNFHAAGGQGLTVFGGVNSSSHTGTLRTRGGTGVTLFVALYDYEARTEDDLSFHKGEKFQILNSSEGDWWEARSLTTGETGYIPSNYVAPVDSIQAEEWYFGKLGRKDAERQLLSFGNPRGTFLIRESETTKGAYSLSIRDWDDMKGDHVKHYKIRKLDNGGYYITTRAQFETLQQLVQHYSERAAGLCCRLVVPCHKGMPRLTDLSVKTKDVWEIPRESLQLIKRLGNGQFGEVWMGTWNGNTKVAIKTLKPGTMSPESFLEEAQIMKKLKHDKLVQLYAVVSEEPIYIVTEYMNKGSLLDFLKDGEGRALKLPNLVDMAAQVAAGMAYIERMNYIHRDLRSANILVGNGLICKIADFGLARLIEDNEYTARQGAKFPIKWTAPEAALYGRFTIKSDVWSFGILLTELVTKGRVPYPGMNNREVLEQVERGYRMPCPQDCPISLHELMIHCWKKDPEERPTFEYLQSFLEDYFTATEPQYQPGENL

[23] = target: Rhodopsin kinase GRK1 (Homo sapiens) (UniProt Q15835); details: Compound concentration 1000.0 nM
[24] = target: Tyrosine-protein kinase HCK (Homo sapiens) (UniProt P08631); details: Compound concentration 1000.0 nM
[25] = target: MAP/microtubule affinity-regulating kinase 3 (Homo sapiens) (UniProt P27448); details: Compound concentration 1000.0 nM
[26] = target: MAP kinase-interacting serine/threonine-protein kinase 2 (Homo sapiens) (UniProt Q9HBH9); details: Compound concentration 1000.0 nM
[27] = target: Serine/threonine-protein kinase MRCK alpha (Homo sapiens) (UniProt Q5VT25); details: Compound concentration 1000.0 nM
Serine/threonine-protein kinase MRCK alpha (Homo sapiens), sequence (Q5VT25 whole entry, canonical isoform): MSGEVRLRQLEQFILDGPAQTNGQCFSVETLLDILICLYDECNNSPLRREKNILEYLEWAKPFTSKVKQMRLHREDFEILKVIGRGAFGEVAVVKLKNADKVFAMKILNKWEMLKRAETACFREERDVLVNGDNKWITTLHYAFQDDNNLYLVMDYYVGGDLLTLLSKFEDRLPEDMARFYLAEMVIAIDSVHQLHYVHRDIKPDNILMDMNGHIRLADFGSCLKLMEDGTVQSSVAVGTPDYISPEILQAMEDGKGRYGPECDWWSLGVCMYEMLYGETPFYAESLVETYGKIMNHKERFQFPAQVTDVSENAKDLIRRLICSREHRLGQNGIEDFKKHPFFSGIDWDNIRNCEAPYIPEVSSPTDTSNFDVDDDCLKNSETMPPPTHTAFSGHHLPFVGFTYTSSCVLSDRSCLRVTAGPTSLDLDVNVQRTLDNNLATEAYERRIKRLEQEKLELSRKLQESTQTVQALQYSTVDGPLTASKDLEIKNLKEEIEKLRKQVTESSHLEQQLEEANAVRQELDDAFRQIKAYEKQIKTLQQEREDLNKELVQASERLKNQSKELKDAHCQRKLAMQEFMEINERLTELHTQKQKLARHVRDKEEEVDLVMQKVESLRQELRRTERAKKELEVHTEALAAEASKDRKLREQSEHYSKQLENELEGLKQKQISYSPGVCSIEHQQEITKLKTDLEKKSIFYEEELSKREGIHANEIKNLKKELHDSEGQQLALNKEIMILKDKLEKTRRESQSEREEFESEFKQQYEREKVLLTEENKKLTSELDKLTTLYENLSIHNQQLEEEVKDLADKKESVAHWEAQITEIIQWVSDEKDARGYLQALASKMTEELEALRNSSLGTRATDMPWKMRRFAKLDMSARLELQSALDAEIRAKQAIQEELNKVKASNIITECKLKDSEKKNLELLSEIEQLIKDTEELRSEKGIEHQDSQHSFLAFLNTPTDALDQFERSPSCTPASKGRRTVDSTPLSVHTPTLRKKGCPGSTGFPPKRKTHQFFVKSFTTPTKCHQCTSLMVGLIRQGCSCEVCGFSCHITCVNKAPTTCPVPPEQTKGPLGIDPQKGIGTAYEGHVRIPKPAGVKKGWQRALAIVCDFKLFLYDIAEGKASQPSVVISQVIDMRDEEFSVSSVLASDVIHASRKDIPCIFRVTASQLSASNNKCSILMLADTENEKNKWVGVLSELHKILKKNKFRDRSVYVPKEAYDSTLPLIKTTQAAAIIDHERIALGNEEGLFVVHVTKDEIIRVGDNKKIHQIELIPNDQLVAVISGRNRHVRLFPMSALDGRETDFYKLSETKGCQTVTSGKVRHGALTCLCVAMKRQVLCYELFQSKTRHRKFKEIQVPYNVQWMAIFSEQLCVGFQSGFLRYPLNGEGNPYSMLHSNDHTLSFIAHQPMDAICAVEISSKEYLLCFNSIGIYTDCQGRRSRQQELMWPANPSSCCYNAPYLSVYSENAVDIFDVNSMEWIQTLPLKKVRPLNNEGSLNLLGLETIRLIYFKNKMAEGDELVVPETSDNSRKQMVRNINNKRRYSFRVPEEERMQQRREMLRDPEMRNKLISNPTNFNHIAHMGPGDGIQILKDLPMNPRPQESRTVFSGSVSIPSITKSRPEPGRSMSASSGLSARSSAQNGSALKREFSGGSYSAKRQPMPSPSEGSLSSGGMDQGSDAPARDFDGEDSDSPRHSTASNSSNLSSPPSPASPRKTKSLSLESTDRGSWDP

[28] = test system: Phosphatidylinositol 4,5-bisphosphate 3-kinase catalytic subunit alpha isoform (Homo sapiens), P42336 [H1047L]; details: Compound concentration 1000.0 nM
[29] = target: Phosphatidylinositol 4-kinase beta (Homo sapiens) (UniProt Q9UBF8); details: Compound concentration 1000.0 nM
[30] = target: Serine/threonine-protein kinase pim-1 (Homo sapiens) (UniProt P11309); details: Compound concentration 1000.0 nM
Serine/threonine-protein kinase pim-1 (Homo sapiens), sequence (P11309 whole entry, looked up): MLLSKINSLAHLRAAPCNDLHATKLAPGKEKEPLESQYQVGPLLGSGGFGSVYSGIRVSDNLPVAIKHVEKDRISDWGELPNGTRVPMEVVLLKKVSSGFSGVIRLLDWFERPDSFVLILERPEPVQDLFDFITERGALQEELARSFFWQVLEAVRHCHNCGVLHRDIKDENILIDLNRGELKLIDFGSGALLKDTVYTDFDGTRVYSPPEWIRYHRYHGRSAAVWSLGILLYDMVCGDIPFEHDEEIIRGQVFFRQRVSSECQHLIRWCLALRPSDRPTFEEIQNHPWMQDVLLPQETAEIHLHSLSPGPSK

[31] = target: RAF proto-oncogene serine/threonine-protein kinase (Homo sapiens) (UniProt P04049); details: Compound concentration 1000.0 nM
[32] = target: Serine/threonine-protein kinase SIK2 (Homo sapiens) (UniProt Q9H0K1); details: Compound concentration 1000.0 nM
[33] = target: STE20-like serine/threonine-protein kinase (Homo sapiens) (UniProt Q9H2G2); details: Compound concentration 1000.0 nM
[34] = target: Tyrosine-protein kinase Srms (Homo sapiens) (UniProt Q9H3Y6); details: Compound concentration 1000.0 nM
[35] = target: Serine/threonine-protein kinase TAO3 (Homo sapiens) (UniProt Q9H2K8); details: Compound concentration 1000.0 nM
[36] = target: Wee1-like protein kinase (Homo sapiens) (UniProt P30291); details: Compound concentration 1000.0 nM

SMILES	% Inhibition of Control Values (Mean n=2) [1]	% Inhibition of Control Specific Binding (Mean n=2) [2]	% Inhibition of Control Specific Binding (Mean n=2) [3]	% Inhibition of Control Specific Binding (Mean n=2) [4]	% Inhibition of Control Specific Binding (Mean n=2) [5]	% Inhibition of Control Specific Binding (Mean n=2) [6]	% Inhibition of Control Specific Binding (Mean n=2) [7]	% Inhibition of Control Specific Binding (Mean n=2) [8]	inhibition at 120 min, 10 µM [9]	residual activity [10]	residual activity [11]	residual activity [12]	residual activity [13]	residual activity [14]	residual activity [15]	residual activity [16]	residual activity [17]	residual activity [18]	residual activity [19]	residual activity [20]	also measured
CCCOc1ccc([C@@H]2[C@@H](C(=O)O)[C@H](c3ccc4c(c3)OCO4)CN2CC(=O)Nc2c(CC)cccc2CC)cc1 [A-1806262]	0.6%	-12.4%	3.1%	96.7%	11.1%	67%	0.2%	9.4%	15.4%	89%	95%	82%	100%	96%	98%	86%	98%	91%	93%	71%	residual activity [21]: 100%; residual activity [22]: 87%; residual activity [23]: 100%; residual activity [24]: 92%; residual activity [25]: 100%; residual activity [26]: 87%; residual activity [27]: 90%; residual activity [28]: 83%; residual activity [29]: 100%; residual activity [30]: 89%; residual activity [31]: 100%; residual activity [32]: 96%; residual activity [33]: 100%; residual activity [34]: 90%; residual activity [35]: 100%; residual activity [36]: 95%
CCCOc1ccc([C@H]2[C@H](C(=O)O)[C@@H](c3ccc4c(c3)OCO4)CN2CC(=O)Nc2c(CC)cccc2CC)cc1 [A-192621]	0.7%	-4.8%	3.2%	94.7%	8.3%	40.3%	-1.5%	23.9%	4.2%	63%	100%	61%	98%	89%	88%	73%	95%	100%	98%	80%	residual activity [21]: 90%; residual activity [22]: 100%; residual activity [23]: 68%; residual activity [24]: 92%; residual activity [25]: 100%; residual activity [26]: 74%; residual activity [27]: 94%; residual activity [28]: 85%; residual activity [29]: 75%; residual activity [30]: 85%; residual activity [31]: 98%; residual activity [32]: 89%; residual activity [33]: 100%; residual activity [34]: 63%; residual activity [35]: 81%; residual activity [36]: 93%
